One molecule from US11472771B2, “Process for making amino diaryl ethers and amino diaryl ethers hydrochloride salts” (CELLESTIA BIOTECH AG, priority 2018, dated 2022) can be followed below.

This data set in a line: Forced degradation: solid state with thermal stress. The format is physicochemical. The procedure: Instrumentation: • Light stability chamber: Solarbox 1500e • Oven: Salvis Vacuum drying oven VC-20 • Heating unit: Ikamag RET-GS with IKA ETS SD and stainless steel heating block • Vials: Supelco V-Vials and screw caps with PTFE septa • Gas tight vials: Agilent 10 mL HS-GC clear glass vials and crimp caps with Not applicable PTFE septa • Quartz glass cuvette: Hellma precision cuvette Suprasil, Type 117.100-QS, 10 mm path length, screw capped with silicone septa • HPLC: As described above
The HPLC test method described above was used to determine the assay and purity of 6-(4-(tert-butyl)phenoxy)pyridin-3-amine monohydrochloride before the forced degradation experiments and the area % content of individual impurities and degradation products in the 6-(4-(tert-butyl)phenoxy)pyridin-3-amine monohydrochloride samples obtained from the degradation experiments.
The assay and the purity of 6-(4-(tert-butyl)phenoxy)pyridin-3-amine monohydrochloride were determined using HPLC with UV detection at 220 nm utilizing the area normalization methodology for purity determination and external standard calibration for assay determination. During all experiments the UV spectra from 200 nm to 950 nm have been recorded and also the peak purity of 6-(4-(tert-butyl)phenoxy)pyridin-3-amine monohydrochloride was assessed.
Approximately 20.4 mg and 50.1 mg of 6-(4-(tert-butyl)phenoxy)pyridin-3-amine monohydrochloride were weighed into a Supelco V-Vial. The vial was closed with the screw cap and stored in the heating block of the heating unit operated at 100° C.±5° C. for 20 h (20 mg sample) and 68 h (50 mg sample), respectively.
After storage at 100° C. for the intended time each sample was cooled down to room temperature and the content of the vial was dissolved in about 4 mL of the sample solvent (acetonitrile/water 3:1 v/v). The obtained solution was quantitatively transferred into a 25 mL volumetric flask (20 mg sample), or to a 50 mL volumetric flask (50 mg sample), respectively. […]

Turning to `CC(C)(C)c1ccc(Oc2ccc(N)cn2)cc1.Cl` [6-(4-(tert-butyl)phenoxy)pyridin-3-amine monohydrochloride], for the setting “100° C.”, the “stability in solid state” value is recorded as “stable”. Further, the “changes in the purity and the purity profile” value (solid state, after 68 h storage at 100° C.) is given as “No significant changes”. Moreover, where the note is “solid state, storage at 100° C., accepted variability of the method ±2%”, the “decrease in the assay” value was at most 2%.
